Measured values from patent US5721338A, “Inhibitors of oligosaccharyl transferase” (California Institute of Technology, priority 1995, dated 1998).
Starred links: 1 amine or outer side, 2 acyl side, 3 side chain; linkers in the order of their positions; H or OH if unused. Positions of bridges follow the written chain, without caps; N, C: chain ends. Non-standard residues stand in square brackets, D forms with d. Residues, ends and D or L forms follow the SMILES beside them. Phe(4-NO2) = N[C@@H](Cc1ccc([N+](=O)[O-])cc1)C(=O)O; X1 = O=C(CCCCC[*:2])[*:1]; Dab = NCC[C@H](N)C(=O)O

B1: S. Cerevisiae Oligosaccharyl Transferase (Saccharomyces cerevisiae S288C) (protein)
chain: MGSDRSCVLSVFQTILKLVIFVAIFGAAISSRLFAVIKFESIIHEFDPWFNYRATKYLVNNSFYKFLNWFDDRTWYPLGRVTGGTLYPGLMTTSAFIWHALRNWLGLPIDIRNVCVLFAPLFSGVTAWATYEFTKEIKDASAGLLAAGFIAIVPGYISRSVAGSYDNEAIAITLLMVTFMFWIKAQKTGSIMHATCAALFYFYMVSAWGGYVFITNLIPLHVFLLILMGRYSSKLYSAYTTWYAIGTVASMQIPFVGFLPIRSNDHMAALGVFGLIQIVAFGDFVKGQISTAKFKVIMMVSLFLILVLGVVGLSALTYMGLIAPWTGRFYSLWDTNYAKIHIPIIASVSEHQPVSWPAFFFDTHFLIWLFPAGVFLLFLDLKDEHVFVIAYSVLCSYFAGVMVRLMLTLTPVICVSAAVALSKIFDIYLDFKTSDRKYAIKPAALLAKLIVSGSFIFYLYLFVFHSTWVTRTAYSSPSVVLPSQTPDGKLALIDDFREAYYWLRMNSDEDSKVAAWWDYGYQIGGMADRTTLVDNNTWNNTHIAIVGKAMASPEEKSYEILKEHDVDYVLVIFGGLIGFGGDDINKFLWMIRISEGIWPEEIKERDFYTAEGEYRVDARASETMRNSLLYKMSYKDFPQLFNGGQATDRVRQQMITPLDVPPLDYFDEVFTSENWMVRIYQLKKDDAQGRTLRDVGELTRSSTKTRRSIKRPELGLRV
notes: a solubilized preparation of the yeast enzyme oligosaccharyl transferase; endogenous in cells; host or cells: Saccharomyces cerevisiae (crude, Triton-solubilized enzyme preparation)

Columns and labels:
[1] = target: T1, S. Cerevisiae Oligosaccharyl Transferase (Saccharomyces cerevisiae, UniProt P39007); assay: Inhibition kinetics (competitive inhibition) with solubilized yeast oligosaccharyl transferase; glycopeptide production from Dol-P-P-GlcNAc-[3H]-GlcNAc and Bz-Asn-Leu-Thr-NHMe; type: biochemical; settings: 37.5 μM Bz-Asn-Leu-Thr-NHMe, control rate 701 dpm min^-1
T1 construct: a solubilized preparation of the yeast enzyme oligosaccharyl transferase; endogenous in cells; host or cells: Saccharomyces cerevisiae (crude, Triton-solubilized enzyme preparation)
Protocol: (§1) Inhibition kinetics with 2 and S. Cerevisiae Oligosaccharyl Transferase:
(§2) Prior to assaying, 26.3 μL of the crude enzyme were equilibrated for thirty minutes in the presence of 197.4 μL assay buffer (50 mM Hepes, pH 7.5, 1% Triton-X, 140 mM sucrose, 0.5 mg/mL phosphatidylcholine, and 10 mM MnCl2) and 13.15 μL 750 μM Bz-Asn-Leu-Thr-NHMe in DMSO. […] A 100,000 dpm aliquot of Dol-P-P-GlcNAc-[^3 H]-GlcNAc (specific activity 36.5 Ci/mmol) was brought to dryness in an eppendorf. The lipid-linked donor was then redissolved 10 μL assay buffer. The assay was initiated by the addition of 190 μL of the equilibrated enzyme. Four time points were obtained by removing 40 μL aliquots at 1.5 minute intervals. Each aliquot was quenched in a solution of 1.2 mL 3/2/1 chloroform/methanol/4 mM MgCl2. The aqueous layer was removed and the organic layer was washed twice with 0.6 mL TUP. The aqueous layers were combined and counted (dpm) in 5 mL Ecolite (ICN). The organic layers were brought to dryness under nitrogen solvable (200 μL, Dupont) was added to each organic fraction and agitated for 45 minutes. The organic layers were counted (dpm) in 7 mL Formula 989 (DuPont). Glycopeptide production is expressed as disintegrations per minute based on the values obtained from the dpms of the aqueous layer corrected for the total dpms in the aqueous and organic layers combined.

[2] = substrate: CNC(=O)[C@@H](NC(=O)[C@H](CC(C)C)NC(=O)[C@H](CC(N)=O)NC(=O)c1ccccc1)[C@@H](C)O; assay: as above; type: biochemical, S. Cerevisiae; settings: other: competing substrate of OT, used in the Ki equation; pH 7.5
Protocol: as §1, §2

Molecule	rate of glycopeptide production ([1]; 10 nM solution of 2) [dpm min^-1]	rate of glycopeptide production ([1]; 100 nM solution of 2) [dpm min^-1]	Km [2] [µM]
CC(C)[C@H](NC(=O)[C@@H](NC(=O)[C@@H]1CSCCCCCC(=O)N[C@@H](CCN)C(=O)N1)[C@@H](C)O)C(=O)N[C@H](C(=O)N[C@@H](Cc1ccc([N+](=O)[O-])cc1)C(N)=O)[C@@H](C)O [Compound 2, Cyclo(Amb-Cys)-Thr-Val-Thr-Nph] ([Dab]CTVT[Phe(4-NO2)]-NH2; linker N-2 via X1)	572	296	–
B1	–	–	25
